Experimental data published in patent US9682988B2, “Solid salt form of α-6-mPEG6-O-hydroxycodone as opioid agonists and uses thereof” (Nektar Therapeutics, priority 2012, dated 2017).

How the values were obtained:
Format in all cases: physicochemical
[1] = Particle size distribution (Malvern Mastersizer); settings: ethyl acetate dispersant; phosphate salt
Protocol: (§1) 27.22 g of freebase alpha-6-mPEG6-O-hydroxycodone was added to a 250 mL jacketed flask. The flask was equipped with a nitrogen inlet, mechanical stirrer and temperature probe connected to a digital read-out. 163 mL of tBME (methyl tert-butyl ether):heptane (5:1 vol:vol) was added to make a homogeneous solution at 15° C. Aqueous phosphoric acid (3103 μL of 85+%) was added over 1 hr at 10 minutes intervals. During the first addition, the initially formed solids were long strings and agitation helped to transform fine solid in matter of seconds. Exothermic temperature spikes occurred; the range of these increases was 8-10° C. observed during the initial 5 added portions. During the 6th and 7th added portion the temperature spike was reduced substantially to increments of a Celsius degree. After 2 hours the slurry was filtered. The filtration rate was instantaneous with no solvent retention. The wet cake was washed with 90 mL tBME (2×45 mL) and set to dry at ambient temperature overnight inside a vacuum oven. The isolated 30.57 g of white solid (96.5% isolated yield) was filtered. The solid after delumping with spatula was free flowing. The % LOD of the wet cake was at 43.2%. HPLC purity was at 98.6%. Bulk density was 0.3276 g/mL, tap density was 0.3931 g/mL, and the Hausner ratio was 1.20. XRPD conformed to the salt prepared according to Example 3. FIG. 16 depicts various XRPD scans for the salt prepared according to Example 7 on a 30 g, 100 g, and 520 g scale and a salt prepared according to Example 3 on a 100 g scale. XRPD patterns were obtained using a Bruker D8 Advance equipped with a Cu Kα radiation source (1.54 Å), a 9-position sample holder and a LYNXEYE Super Speed Detector. Typically, the duration of each scan was 180 seconds and the 2θ range was 4 to 40°. Samples were placed on zero-background, silicon plate holders. DSC data were collected using a TA Instruments Q10 DSC. Typically, samples (˜2 mg) were placed in hermetic alodined aluminum sample pans and scanned from 30 to 350° C. at a rate of 10° C./min under a nitrogen purge of 50 mL/min. A Malvern Hydro 2000 SM (A) Mastersizer was used for particle size analysis data using a generic method. Ethyl acetate was used as the dispersant, with a pump speed of 2000 rpm, obstruction of 10-15%. The addition style included direct addition of the solid to the dispersant until desired obstruction is achieved. The number of measurements was a minimum of two. For PSD analysis, a sample was taken from the bulk of the solid. FIGS. 13, 14, and 15 are plots of the PSD analysis for the 30 g, 100 g, and 520 g lots respectively.

[2] = Water vapor sorption; settings: phosphate salt
Protocol: Moisture sorption/desorption data were collected on a VTI SGA-1 00 Vapor Sorption Analyzer. Sorption and desorption data were collected over a range of 5% to 95% relative humidity (RH) at 10% RH intervals under a nitrogen purge. Samples were not dried prior to analysis. Equilibrium criteria used for analysis were less than 0.0100% weight change in 5 minutes, with a maximum equilibration time of 3 hours if the weight criterion was not met. Data were not corrected for the initial moisture content of the samples. NaCl and PVP were used as calibration standards.

[3] = Bulk and tap density of the solid salt
Protocol: as §1

[4] = Description of the isolated solid (hygroscopicity); settings: after drying under vacuum at ambient temperature
Protocol: A solution of α-6-mPEG6-O-hydroxycodone was prepared in a mixture of methanol and tert-butyl methyl ether (2:1, 2 volumes) at 30° C. A solution of phosphoric acid (85% aqueous, 1.05 eq) was prepared in a mixture of methanol and tert-butyl methyl ether (2:1, 1.2 volumes) at 20° C. The solutions were combined, maintaining a temperature of 30-50° C., resulting in the formation of dissolved α-6-mPEG6-O-hydroxycodone phosphate. This salt solution was adjusted to 40° C., and gradually transferred over the course of 1-3 hours into a solution of heptanes and tert-butyl methyl ether (4:1, 14 volumes) maintained at 45° C. During the transfer, α-6-mPEG6-O-hydroxycodone phosphate precipitated from the combined streams. The resulting slurry was cooled to 20° C. and agitation was ceased, permitting the solids to settle. The supernate was decanted, and heptanes (6 volumes) were added to the solids. The solids were slurried for at least one hour at 30° C., after which the slurry was cooled to 20° C. Again agitation was ceased, the solids were allowed to settle, and the supernate was decanted. Fresh heptanes were added to the solids, which were again slurried for at least one hour at 30° C. The slurry was cooled to 20° C., filtered, and washed with fresh heptanes (2 volumes). […] The solid form prepared according to this Example has a melting point in the range of about 175-177° C. […]

[5] = listed as Alpha 6-mPEG6-O-Hydroxycodone Phosphate Salt

SMILES | Particle Size Distribution DV[10] [1] | Particle Size Distribution DV[50] [1] | Particle Size Distribution DV[90] [1] | Water Vapor Sorption (gain between 0-50% RH) [2] [%] | Bulk Density ([3]; phosphate salt) [g/mL] | Hausner ratio ([3]; phosphate salt) | Tap Density ([3]; phosphate salt) [g/mL] | nature of the isolated solid [4] | Bulk Density [3, 5] [g/mL] | Hausner ratio [3, 5] | Tap Density [3, 5] [g/mL]
COCCOCCOCCOCCOCCOCCO[C@H]1CC[C@@]2(O)[C@H]3Cc4ccc(OC)c5c4[C@@]2(CCN3C)[C@H]1O5.O=P(O)(O)O [520 g Lot, α-6-mPEG6-O-hydroxycodone phosphate salt] | DV[10] = 7 μm | DV[50] = 47 μm | DV[90] = 93 μm | 4.2 | 0.39 | 1.25 | 0.49 | – | – | – | –
COCCOCCOCCOCCOCCOCCO[C@H]1CC[C@@]2(O)[C@H]3Cc4ccc(OC)c5c4[C@@]2(CCN3C)[C@H]1O5.O=P(O)(O)O [30 g Lot, α-6-mPEG6-O-hydroxycodone phosphate salt] | DV[10] = 7 μm | DV[50] = 47 μm | DV[90] = 92 μm | 4.2 | 0.33 | 1.18 | 0.39 | – | – | – | –
COCCOCCOCCOCCOCCOCCO[C@H]1CC[C@@]2(O)[C@H]3Cc4ccc(OC)c5c4[C@@]2(CCN3C)[C@H]1O5.O=P(O)(O)O [α-6-mPEG6-O-hydroxycodone phosphate] | – | – | – | – | – | – | – | slightly waxy, hygroscopic powder | 0.3276 | 1.20 | 0.3931
COCCOCCOCCOCCOCCOCCO[C@H]1CC[C@@]2(O)[C@H]3Cc4ccc(OC)c5c4[C@@]2(CCN3C)[C@H]1O5.O=C(O)C(O)C(O)C(=O)O [α-6-mPEG6-O-hydroxycodone D-tartrate] | – | – | – | – | – | – | – | deliquescent white powder | – | – | –
COCCOCCOCCOCCOCCOCCO[C@H]1CC[C@@]2(O)[C@H]3Cc4ccc(OC)c5c4[C@@]2(CCN3C)[C@H]1O5.O=P(O)(O)O [100 g Lot, α-6-mPEG6-O-hydroxycodone phosphate salt] | DV[10] = 9 μm | DV[50] = 53 μm | DV[90] = 109 μm | 4.1 | 0.37 | 1.30 | 0.48 | – | – | – | –
